Experimental data: patent US10428082B2, “Triazole derivatives of melampomagnolide B and methods of use thereof” (BioVentures, LLC, priority 2016, dated 2019)

Assays:
[1] = test system: primary AML cell line AML1; assay: Anti-leukemic activity, Annexin V/7-AAD flow cytometry; assay type: cell-based, human
Method: (§1) The newly synthesized triazole derivatives of melampomagnolide B were screened for anti-leukemic activity against M9 ENL1 and primary AML cell lines; the latter were obtained with informed consent from human patients. Evaluations were performed after 24 h of drug exposure using flow cytometric analysis by labeling with Annexin V and 7-aminoactinomycin D (7-AAD) to delineate apoptotic cell populations. In all experiments PTL was included as a reference control.

[2] = test system: primary AML cell line AML2; assay: as above; assay type: cell-based, human
Method: as §1

HO-1 = assay: Induction of HO-1 by Western blot assay; assay type: cell-based
NF-κB pathway = assay: NF-κB inhibition by Western blot, phosphorylation of the P65 subunit; assay type: cell-based
Method: Also JVM 4-29 was evaluated for NF-κB inhibition by Western blot analysis; by determining its effect on the phosphorylation of the P65 subunit.

A498 = assay: NCI 60 growth inhibition; assay type: cell-based, human; conditions: Homo sapiens; A498, Renal Cancer, Table 2
A549/ATCC = assay: NCI 60 growth inhibition; assay type: cell-based, human; conditions: Homo sapiens, Non-Small Cell Lung Cancer, Table 2
ACHN = assay: NCI 60 growth inhibition; assay type: cell-based, human; conditions: Homo sapiens, Renal Cancer, Table 2
BT-549 = assay: NCI 60 growth inhibition; assay type: cell-based, human; conditions: Homo sapiens; BT-549, Breast Cancer, Table 2
HCT-15 = assay: NCI 60 growth inhibition; assay type: cell-based, human; conditions: Homo sapiens; HCT-15, Colon Cancer, Table 2
HT29 = assay: NCI 60 growth inhibition; assay type: cell-based, human; conditions: Homo sapiens; HT-29, Colon Cancer, Table 2
KM12 = assay: NCI 60 growth inhibition; assay type: cell-based, human; conditions: Homo sapiens; KM12, Colon Cancer, Table 2
LOX IMVI = assay: NCI 60 growth inhibition; assay type: cell-based, human; conditions: Homo sapiens, Melanoma, Table 2
M14 = assay: NCI 60 growth inhibition; assay type: cell-based, human; conditions: Homo sapiens; M14, Melanoma, Table 2
MCF7 = assay: NCI 60 growth inhibition; assay type: cell-based, human; conditions: Homo sapiens; MCF7, Breast Cancer, Table 2
NCI-H522 = assay: NCI 60 growth inhibition; assay type: cell-based, human; conditions: Homo sapiens; NCI-H522, Non-Small Cell Lung Cancer, Table 2
OVCAR-4 = assay: NCI 60 growth inhibition; assay type: cell-based, human; conditions: Homo sapiens; OVCAR-4, Ovarian Cancer, Table 2
OVCAR-5 = assay: NCI 60 growth inhibition; assay type: cell-based, human; conditions: Homo sapiens; OVCAR-5, Ovarian Cancer, Table 2
OVCAR-8 = assay: NCI 60 growth inhibition; assay type: cell-based, human; conditions: Homo sapiens; OVCAR-8, Ovarian Cancer, Table 2
SF-295 = assay: NCI 60 growth inhibition; assay type: cell-based, human; conditions: Homo sapiens; SF-295, CNS Cancer, Table 2
SF-539 = assay: NCI 60 growth inhibition; assay type: cell-based, human; conditions: Homo sapiens; SF-539, CNS Cancer, Table 2
SK-MEL-5 = assay: NCI 60 growth inhibition; assay type: cell-based, human; conditions: Homo sapiens; SK-MEL-5, Melanoma, Table 2
SN12C = assay: NCI 60 growth inhibition; assay type: cell-based, human; conditions: Homo sapiens, Renal Cancer, Table 2
SNB-19 = assay: NCI 60 growth inhibition; assay type: cell-based, human; conditions: Homo sapiens; SNB-19, CNS Cancer, Table 2
SNB-75 = assay: NCI 60 growth inhibition; assay type: cell-based, human; conditions: Homo sapiens; SNB-75, CNS Cancer, Table 2
SR = assay: NCI 60 growth inhibition; assay type: cell-based, human; conditions: Homo sapiens, Leukemia, Table 2
U251 = assay: NCI 60 growth inhibition; assay type: cell-based, human; conditions: Homo sapiens, U-251; U251, CNS Cancer, Table 2
UACC-257 = assay: NCI 60 growth inhibition; assay type: cell-based, human; conditions: Homo sapiens; UACC-257, Melanoma, Table 2
UO-31 = assay: NCI 60 growth inhibition; assay type: cell-based, human; conditions: Homo sapiens; UO-31, Renal Cancer, Table 2

C=C1C(=O)O[C@H]2[C@H]1CC/C(Cn1cc(-c3cc(C(F)(F)F)cc(C(F)(F)F)c3)nn1)=C\CC[C@@]1(C)O[C@@H]21 [JVM 4-29, (1aR,7aS,10aS,10bS,E)-5-((4-(3,5-bis(Trifluoromethyl)phenyl)-1H-1,2,3-triazol-1-yl)methyl)-1a-methyl-8-methylene-2,3,6,7,7a,8,10a,10b-octahydrooxireno[2′,3′:9,10]cyclodeca[1,2-b]furan-9(1aH)-one]
EC50 ([1]; Homo sapiens, AML1, 24 h, 24 h of drug exposure, read-out: AML#1 (EC50)): 400 nM
fold more cytotoxic compared to DMAPT ([1]; primary cell line AML1): 36.7 fold
fold more potent anti-leukemic activity than PTL ([1]; primary cell line AML1): 32.7 fold
fold more potent than the MMB ([1]; primary cell line AML1): 51.2 fold
EC50 ([2]; Homo sapiens, 24 h, 24 h of drug exposure, read-out: AML#2 (EC50)): 700 nM
fold more cytotoxic compared to DMAPT ([2]; primary cell line AML2): 16.1 fold
fold more potent anti-leukemic activity than PTL ([2]; primary cell line AML2): 14.8 fold
fold more potent than the MMB ([2]; primary cell line AML2): 34.7 fold
induction of HO-1 compared to PTL (HO-1): stronger induction of HO-1 when compared to PTL
inhibition of the NF-κB pathway compared to parthenolide (NF-κB pathway): significantly more potency as an inhibitor of the NF-κB pathway when compared to parthenolide
GI50 (A498): 430 nM
GI50 (A549/ATCC): 1360 nM
GI50 (ACHN): 160 nM
GI50 (BT-549): 170 nM
GI50 (HCT-15): 190 nM
GI50 (HT29): 190 nM
GI50 (KM12): 1040 nM
GI50 (LOX IMVI): 150 nM
GI50 (M14): 350 nM
GI50 (MCF7): 190 nM
GI50 (NCI-H522): 120 nM
GI50 (OVCAR-4): 500 nM
GI50 (OVCAR-5): 1100 nM
GI50 (OVCAR-8): 880 nM
GI50 (SF-295): 1190 nM
GI50 (SF-539): 170 nM
GI50 (SK-MEL-5): 1470 nM
GI50 (SN12C): 700 nM
GI50 (SNB-19): 1710 nM
GI50 (SNB-75): 1260 nM
GI50 (SR): 100 nM
GI50 (U251): 1440 nM
GI50 (UACC-257): 1460 nM
GI50 (UO-31): 380 nM
